Columns and labels:
[1] = tested on: blood antibody level (IgM, IgG, IgA, IgE); assay: Blood antibody level of mice antigen-sensitized with ovalbumin (OVA) after chrysin intake (ELISA); format: in vivo, mouse
Description: Male BALB/c mice aged 8 weeks were divided into an AIN-93M-fed group (a control group) and a chrysin-comprising AIN-93M-fed group. After feeding with the individual feeds for 3 weeks, both groups were fed with the AIN-93M feed for 2 weeks. Each feed was given at a ratio of 5 g/day/animal while the animals were allowed to take water ad libitum. OVA-sensitization was conducted by injecting 100 μg of OVA/aluminum hydroxide gel into the peritoneal cavity of each mouse 1 and 2 weeks after the initiation of the feed, i.e., twice in total. On day 35, blood samples were collected and the total IgM, IgG and IgE levels in the serum were measured by ELISA. Reagents employed in ELISA for quantifying the antibody were as follows. In blocking, use was made of PBS comprising 1% of bovine serum albumin (Roche) (BSA-PBS). As solid phase antibodies, use was made of F(ab′)2 goat anti-mouse IgG antibody (Zymed Laboratories, Inc.), F(ab′)2 rabbit anti-mouse IgM antibody (Zymed Laboratories, Inc.) and rabbit anti-mouse IgA (Zymed Laboratories, Inc.). As secondary antibodies, use was made of HRP-labeled F(ab′)2 goat anti-mouse IgG(H(L) antibody (Zymed Laboratories, Inc.), HRP-labeled rabbit anti-mouse IgM antibody (Zymed Laboratories, Inc.) and HRP-labeled goat anti-mouse IgA antibody (Zymed Laboratories, Inc.). 2,2′-Anizo-bis(3-ethylbenzothiazoline-6-sulfonic acid) diammonium salt (ABTS) employed as a color development substrate was purchased from Wako Pure Chemical Industries, while oxalic acid was purchased from Nacalai tesque (Kyoto, Japan). A solid phase antibody solution (diluted 1000-fold with a 50 mM carbonate buffer) was pipetted into an immunoplate at a ratio of 100 μL/well and allowed to stand overnight at 4° C. After washing thrice with PBS comprising 0.1% of polyoxyethylene sorbitan monolaurate (Nacalai tesque) (TPBS), 300 μL/well of BSA-PBS was pipetted and incubation was conducted for 2 hours at 37° C. After washing thrice with TPBS, a sample and a standard solution, which were optionally diluted with BSA-PBS, were added at a ratio of 50 μL/well and allowed to stand overnight at 4° C. After washing thrice with TPBS, 100 μL/well of a secondary antibody solution (diluted 2000-fold with BSA-PBS) was pipetted and incubation was conducted for 1 hour at 37° C. After washing thrice with TPBS, 100 μL/well of a color development substrate solution was pipetted and color development was carried out. Then, 100 μL/well of oxalic acid was pipetted to cease the reaction and the absorbance was measured at 415 to 490 nm. As the color development substrate solution, a mixture of a 0.006% H2O2— comprising 0.2 M citrate buffer (pH 4.0), deionized water and a 10.94 mM ABTS solution (10:9:1) was employed. In the case of IgE, the procedure indicated in the protocol attached to a mouse IgE assay kit (Morinaga Biochemistry Lab.) was followed. Absorbance was measured using Immuno Mini NJ-2300 (Nippon Intermed).

[2] = tested on: KU812 cells; assay: A23187-induced histamine release from human basophil cell line KU812; format: cell-based; details: 25 μM of chrysin, 5 μM A23187, vs control free from chrysin
Description: Human basophil cell line KU812 cells (5×10^6 cells/mL) were incubated in Tyrode buffer comprising 1 mM of CaCl2, to which 25 μM of chrysin had been added, and then stimulated with A23187. Histamine released from the cells and histamine cumulated in the cells were quantified to thereby determine the histamine release rate. Comparison was made with a control system free from chrysin.
Human basophil cell line KU812 cells (5×10^5 cells/mL) were incubated in Tyrode buffer (137 mM NaCl, 2.7 mM KCl, 1.8 mM CaCl2, 1.1 mM MgCl2, 1.19 mM NaHCO3, 0.4 mM NaH2PO4, pH 7.4) comprising 25 μM of chrysin and 1 mM of CaCl2 for 20 min at 37° C. After adding 5 μM of A23187 (Sigma Chemical Co.), the incubation was continued for an additional 20 min at 37° C. […] In a sample for quantifying histamine cumulated in cells, the cells were centrifuged at 300×g for 5 min, ultrasonically disrupted for about 1 min and then centrifuged at 12,000×g for 5 min and 1 mL of the supernatant was collected. To perform fluorescence measurement under alkaline conditions, a complex of histamine and o-phthaldehyde (Wako) was formed and partly extracted. […] The fluorescent intensity was measured using a fluorophotometer RF-1500 at an excitation wavelength of 360 nm and a fluorescent wavelength of 450 nm.

[3] = tested on: FcεRI α- and γ-chains mRNA; assay: FcεRI mRNA expression in human peripheral blood basophils (RT-PCR); format: cell-based; details: 25 µM of chrysin, 24 hours, vs DMSO
Description: Peripheral blood basophils (1×10^6 cells/mL) collected from the vein of a donor were incubated in a medium comprising 25 µM of chrysin or dimethyl sulfoxide (DMSO) for 24 hours. Then, RNA was extracted and the mRNA expression level of each of the FcεRI α- and γ-chains was examined by the RT-PCR method. Venous blood was collected from the forearm elbow of a donor. Then, peripheral blood lymphocytes were separated and purified using Lymphocyte Separation Medium (ICN Biomedical Inc.) and peripheral basophils were separated and purified by the density gradient centrifugation method using Percoll (Amersham Biosciences). The basophils (1×10^6 cells/mL) were incubated in 5% FCS-RPMI 1640 medium, to which 25 µM of chrysin or a solvent dimethylsulfoxide (DMSO) had been added, for 24 hours. RNA was extracted and the mRNA expression levels of FcεRI α- and γ-chains were examined by the RT-PCR method as in Example 1.

[4] = serum, day 35, BALB/c mice OVA-sensitized, chrysin-comprising feed 3 weeks

SMILES: O=c1cc(-c2ccccc2)oc2cc(O)cc(O)c12 [Chrysin, 5,7-dihydroxyflavone]
- blood IgE level compared with the control group ([1]; OVA-sensitized mice, in words): significantly lowered
- effect of chrysin intake on blood IgM, IgG and IgA levels ([1]; OVA-sensitized mice, in words, vs control group): no effect
- IgA [1, 4]: 0.6 ± 0.0 mg/mL
- IgG [1, 4]: 23.5 ± 3.0 mg/mL
- IgM [1, 4]: 5.4 ± 0.2 mg/mL
- histamine release induced by A23187 [2]: significantly lowered
- FcεRI α-chain mRNA expression level [3]: strongly lowered
- FcεRI γ-chain mRNA expression level [3]: lowered
